Where two headings read alike, the source gives them in different places.
Legend:
[1] = tested on: collagen type II-induced arthritis (CIA)
DTH response in mice = type: in vivo; conditions: DTH; for Inhibition of mouse ear swelling: 24 h after challenge; for inhibition relative to that of the high dose of dexamethasone: versus dexamethasone 1 mg/kg
Procedure: The anti-inflammatory and anti-allergic effects of compounds 1a and 1c were assessed in a mouse model of skin delayed-type hypersensitivity (DTH) reactions and compared to a vehicle control and to the reference drug dexamethasone. DTH reactions are antigen-specific cell-mediated immune responses, driven primarily by T helper type 1 (Th1) cells, similar to the tuberculin immunization response. The immune reaction induced by an ovalbumin challenge to animals previously sensitized with ovalbumin in Complete Freund's Adjuvant, is characterized by swelling (edema) at the site of challenge, e.g. the mouse ear. Dexamethasone, an anti-inflammatory steroid, reduces cell-mediated immune responses and was employed to validate the responsiveness of the assay to pharmacological treatment.
Female BALB/cJW mice were bred at the University of Lodz, Lodz, Poland and housed in groups of 8 in makrolon cages with a 12 h light-dark cycle. Mice were given free access to food (Agropol S.j., Motycz, Poland) and water.
Sensitization: The protein antigen, ovalbumin, was reconstituted in PBS at 4 mg/ml. An ovalbumin-CFA emulsion was prepared by mixing the protein solution with the CFA suspension at a ratio of 1:1, using two Luer-lock syringes. The emulsion was tested by putting a drop of emulsion onto PBS; if the emulsion remained as a tight droplet on the PBS, the emulsion was deemed ready. Mice were sensitized by subcutaneously injecting 25 μL of emulsion into each side of the tail (100 μg ovalbumin per mouse).
Challenge: On the sixth day after sensitization, DTH was elicited by challenging animals subcutaneously (gauge 30 needle, B. Braun Melsungen, Melsungen, Germany) in the left ears with 10 μL of a 1% suspension of heat-aggregated ovalbumin (HOVA) (100 μg ovalbumin per mouse). The right ears were administered subcutaneously with PBS and served to determine the individual differences in ear thicknesses. HOVA was prepared by heating a 5% solution of ovalbumin in saline for 1 h at 80° C. with occasional swirling. After cooling to room temperature and centrifugation (400 g. 10 min at 4° C.), the pellet was washed twice with saline, resuspended at 2% in PBS and aliquots stored at −30° C. Before injection, HOVA was diluted with an equal volume of PBS and sonicated. Ear thickness was measured with a precise spring-loaded caliper (Art. No. 7309, Mitutoyo, Kawasaki, Japan) before challenge, and 24 h after challenge.
Sensitization, challenge and ear thickness measurement were performed under anesthesia (ketamine 80 mg/kg plus xylazine 8 mg/kg, intraperitoneally).
The anti-inflammatory effects of compounds 1a and 1c were compared to a vehicle control (0.5% methyl cellulose solution) and to the reference drug, dexamethasone. Test compounds were given at 25 or 100 mg/kg orally by gavage (Art. No. 432093, Harvard Apparatus GmbH, March-Hugstetten, Germany) 16 h and 3 h before sensitization and then twice daily with the final dose given 3 h prior to ear challenge (a total of 14 administrations). Dexamethasone was given at 0.1 or 1 mg/kg orally by gavage 3 h before sensitization and once daily with the final dose given 3 h prior to antigen challenge (a total of 7 administrations). All administrations were given in a volume of 10 ml/kg.
To account for individual variability, the increase in right ear thickness, before and 24 h after administration of PBS, was subtracted from the HOVA-induced increase in left ear thickness. The increase in ear thickness was calculated by the difference between ear thickness before and 24 h after antigen challenge. Percent inhibition of ear swelling was calculated according to the following formula: % inhibition=100×(IETvehicle−IETcompound)/IETvehicle where IET=(ET24 hrs pc−ETpredose)HOVA-treated ears−(ET24 hrs pc−ETpredose)PBS-treated ears • (IET, increase ear thickness; ET, ear thickness; pc, post challenge)
Mean and standard deviation (SD) were calculated from individual ear edema values. […]

[2] = Pharmacokinetic study after a single oral administration to mice; type: in vivo
Procedure: The aim of the study was to evaluate pharmacokinetic (PK) properties of five different batches including anhydrates and monohydrates of the crystal form A of compound 1a (cf. Table 1 in Example 5) after a single oral administration to mice. Three of the forms were anhydrous and two were monohydrates.
Compound 1a was administered as a suspension of 0.5% methyl cellulose (Sigma-Aldrich) in water at a dose of 100 mg/kg (10 ml/kg) by oral gavage to non-fasted female Balb/c mice (n=3).
Blood was collected by decapitation at 0.5, 1, 2, 4, 8, 12, 24, and 48 h after administration. Blood plasma was isolated by centrifugation at 4° C. (20,000×g for 10 min), transferred to microtubes containing lithium-heparin and frozen in aliquots at −70° C. until assayed by mass-spectrometry. Mean plasma concentration-time profiles (semi-logarithmic) of the five polymorphic crystal forms of compound 1a are shown in FIG. 6.
For PK evaluation, summary statistics and plotting of concentration/time curves, all values below the lower limit of quantification (LLOQ) were set to zero.

[3] = 100 mg/kg orally twice daily (14 administrations)

SMILES | spleen and thymus weights ([1]; mouse, in vivo) | toxic effects ([1]; mouse, in vivo) | cumulative arthritis score and paw thickness ([1]; prophylactic regimen day 0-47, 25 and 100 mg/kg orally twice daily, vs vehicle) | arthritis score and cumulative arthritis score ([1]; therapeutic regimen, 100 mg/kg orally twice daily for 20 days, day 11 to 13 and day 21, vs vehicle) | Inhibition of mouse ear swelling (DTH response in mice; 25 mg/kg orally twice daily (14 administrations)) | Inhibition of mouse ear swelling (DTH response in mice; [3]) | inhibition relative to that of the high dose of dexamethasone (DTH response in mice) | tmax ([2]; female, Balb/c, mouse, plasma, po, 100 mg/kg, female Balb/c mice, single oral 100 mg/kg in 0.5% methylcellulose, plasma, read-out: tmax) | overt toxicity ([2]; single oral 100 mg/kg, regardless of the polymorphic crystal form)
CCCCCCCCCCCCCCCCN(C)CC(O)CS(=O)(=O)O (centres unmarked) [Compound 1a, 2-hydroxy-3-(N-methylhexadecylammonio)propane-sulfonate] | did not reduce | did not show any toxic effects | reduced | significantly reduced | 49% | 52% | up to 98% | 1 to 2 h | No overt toxicity
CCCCCCCCCCCCN(C)CC(O)CS(=O)(=O)O (centres unmarked) [Compound 1c, 2-hydroxy-3-(N-methyldodecylammonio)propanesulfonate] | – | – | – | – | – | 41% | 77% | – | –

— patent US11453642B2, “Oxygenated amino- or ammonium-containing sulfonic acid, phosphonic acid and carboxylic acid derivatives and their medical use” (GRI BIO, INC., priority 2011, dated 2022)
